# Read-outs that look alike come from different tables or passages of the source.
# Tests used:
# [1] = snar bond
# [2] = biological target: CFTR-mediated chloride transport (Homo sapiens, UniProt P13569); assay type: cell-based; conditions: enteroid cells incubated with test compound 18-24 hours, acute 10 μM forskolin and 300 nM Compound III; for Max. Activity: % of chloride transport with 3 μM Compound A, 3 μM Compound II and 300 nM acute Compound III triple combination control
# In short: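 Human intestinal enteroid cells incubated with compound 18–24 h at 37° C., then membrane potential dye (FLIPR) read 15 min after chloride-free stimulation with 10 μM forskolin, 100 μM IBMX and 300 nM Compound III. AUC expressed as % of triple-combination control (3 μM Compound A, 3 μM Compound II, 300 nM Compound III).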
# CFTR-mediated chloride transport, sequence (P13569 whole entry, looked up): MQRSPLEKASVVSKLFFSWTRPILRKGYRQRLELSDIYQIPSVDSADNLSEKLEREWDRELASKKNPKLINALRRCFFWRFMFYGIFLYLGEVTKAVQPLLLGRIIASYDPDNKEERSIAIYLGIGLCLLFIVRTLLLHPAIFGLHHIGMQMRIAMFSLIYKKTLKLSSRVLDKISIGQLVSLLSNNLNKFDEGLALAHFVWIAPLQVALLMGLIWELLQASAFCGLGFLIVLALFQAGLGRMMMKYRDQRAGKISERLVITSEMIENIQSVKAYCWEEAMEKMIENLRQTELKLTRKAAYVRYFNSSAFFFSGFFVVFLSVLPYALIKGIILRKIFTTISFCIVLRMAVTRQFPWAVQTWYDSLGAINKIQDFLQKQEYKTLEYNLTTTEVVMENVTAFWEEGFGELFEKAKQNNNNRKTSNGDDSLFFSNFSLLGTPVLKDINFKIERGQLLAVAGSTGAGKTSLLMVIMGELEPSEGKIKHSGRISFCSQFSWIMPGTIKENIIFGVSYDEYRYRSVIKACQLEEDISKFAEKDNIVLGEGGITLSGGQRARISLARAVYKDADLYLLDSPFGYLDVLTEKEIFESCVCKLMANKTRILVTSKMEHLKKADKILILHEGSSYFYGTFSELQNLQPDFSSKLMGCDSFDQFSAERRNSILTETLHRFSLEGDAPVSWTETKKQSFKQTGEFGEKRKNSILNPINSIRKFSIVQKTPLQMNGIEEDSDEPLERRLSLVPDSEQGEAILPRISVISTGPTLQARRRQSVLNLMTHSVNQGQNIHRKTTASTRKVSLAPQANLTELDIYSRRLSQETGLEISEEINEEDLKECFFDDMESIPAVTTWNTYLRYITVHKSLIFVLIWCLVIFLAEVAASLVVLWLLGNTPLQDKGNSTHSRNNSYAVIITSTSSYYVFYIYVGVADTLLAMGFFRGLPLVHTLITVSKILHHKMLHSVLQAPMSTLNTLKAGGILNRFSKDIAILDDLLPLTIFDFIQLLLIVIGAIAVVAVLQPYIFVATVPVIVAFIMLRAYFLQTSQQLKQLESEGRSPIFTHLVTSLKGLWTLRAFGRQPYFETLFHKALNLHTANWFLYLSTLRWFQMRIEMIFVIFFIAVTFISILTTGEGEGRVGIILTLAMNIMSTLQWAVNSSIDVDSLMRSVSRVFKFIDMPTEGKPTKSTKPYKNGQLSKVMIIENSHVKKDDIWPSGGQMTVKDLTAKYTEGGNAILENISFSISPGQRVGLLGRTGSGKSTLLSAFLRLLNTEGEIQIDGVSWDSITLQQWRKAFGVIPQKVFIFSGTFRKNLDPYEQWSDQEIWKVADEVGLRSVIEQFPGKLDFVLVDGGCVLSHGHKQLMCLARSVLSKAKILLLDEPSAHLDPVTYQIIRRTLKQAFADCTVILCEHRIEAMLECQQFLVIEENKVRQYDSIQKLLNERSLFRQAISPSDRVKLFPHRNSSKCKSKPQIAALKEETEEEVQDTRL
Compound,EC50 [2] [nM],Max. Activity [2],also measured
"CC1(C)CC2CCCn3cc(cn3)S(=O)(=O)NC(=O)c3ccc(-n4ccc(OCCC5(C(F)(F)F)CC5)n4)nc3N1C2 (stereo not drawn) [Compound 110, 20,20-Dimethyl-4-(3-{2-[1-(trifluoromethyl)cyclopropyl]ethoxy}-1H-pyrazol-1-yl)-10λ^6-thia-1,3,9,13,14-pentaazatetracyclo[16.2.1.111,14.02,7]docosa-2,4,6,11(22),12-pentaene-8,10,10-trione]",< 1000,++ (++ is 30-60%),"ring closure, isolated yield ([1]; from CC(C)(C)OC(=O)N1CC(CCCn2cc(S(=O)(=O)NC(=O)c3ccc(-n4ccc(OCCC5(C(F)(F)F)CC5)n4)nc3Cl)cn2)CC1(C)C, 14-membered ring, HCl (Boc off), K2CO3/CsF/3A MS, DMSO, 44.8 mM, 155.0 °C, 2 steps): 36%"
"CC1(C)CC2CCCCn3cc(cn3)S(=O)(=O)NC(=O)c3ccc(-n4ccc(OCCC5(C(F)(F)F)CC5)n4)nc3N1C2 (stereo not drawn) [Compound 122, 21,21-Dimethyl-4-(3-{2-[1-(trifluoromethyl)cyclopropyl]ethoxy}-1H-pyrazol-1-yl)-10λ^6-thia-1,3,9,13,14-pentaazatetracyclo[17.2.1.111,14.02,7]tricosa-2,4,6,11(23),12-pentaene-8,10,10-trione]",< 1000,++ (++ is 30-60%),"ring closure, isolated yield ([1]; from CC(C)(C)OC(=O)N1CC(CCCCn2cc(S(=O)(=O)NC(=O)c3ccc(-n4ccc(OCCC5(C(F)(F)F)CC5)n4)nc3Cl)cn2)CC1(C)C, 15-membered ring, K2CO3/CsF/3A MS, DMSO, 41.5 mM, 155.0 °C, 2 steps): 50%"
"CN1CCCC2CN(c3nc(-n4ccc(OCCC5(C(F)(F)F)CC5)n4)ccc3C(=O)NS(=O)(=O)c3cccc1n3)C(C)(C)C2 (stereo not drawn) [Compound 133, 12,12,18-trimethyl-8-(3-{2-[1-(trifluoromethyl)cyclopropyl]ethoxy}-1H-pyrazol-1-yl)-2λ^6-thia-3,9,11,18,23-pentaazatetracyclo[17.3.1.111,14.05,10]tetracosa-1(23),5(10),6,8,19,21-hexaene-2,2,4-trione]",< 1000,+++ (+++ is >60%),"ring closure, isolated yield ([1]; from CN(CCCC1CNC(C)(C)C1)c1cccc(S(=O)(=O)NC(=O)c2ccc(-n3ccc(OCCC4(C(F)(F)F)CC4)n3)nc2Cl)n1, 15-membered ring, K2CO3/CsF/3A MS, DMSO, 30.3 mM, 165.0 °C, 4.0 h): 42%"
"CN1CCCC2CN(c3nc(-n4ccc(OCCC5(C(F)(F)F)CC5)n4)ccc3C(=O)NS(=O)(=O)c3ccc1nc3)C(C)(C)C2 (stereo not drawn) [Compound 140, 12,12,18-Trimethyl-8-(3-{2-[1-(trifluoromethyl)cyclopropyl]ethoxy}-1H-pyrazol-1-yl)-2λ^6-thia-3,9,11,18,20-pentaazatetracyclo[17.2.2.111,14.05,10]tetracosa-1(22),5,7,9,19(23),20-hexaene-2,2,4-trione]",< 1000,++ (++ is 30-60%),"ring closure, isolated yield ([1]; from CN(CCCC1CNC(C)(C)C1)c1ccc(S(=O)(=O)NC(=O)c2ccc(-n3ccc(OCCC4(C(F)(F)F)CC4)n3)nc2Cl)cn1, 16-membered ring, K2CO3/CsF, DMSO, 10.2 mM, 200.0 °C, 1.5 h): 12%"
"CC1(C)CC2CCCCCc3ccc(cn3)S(=O)(=O)NC(=O)c3ccc(-n4ccc(OCCC5(C(F)(F)F)CC5)n4)nc3N1C2 (stereo not drawn) [Compound 142, 12,12-Dimethyl-8-(3-{2-[1-(trifluoromethyl)cyclopropyl]ethoxy}-1H-pyrazol-1-yl)-2λ^6-thia-3,9,11,21-tetraazatetracyclo[18.2.2.111,14.05,10]pentacosa-1(23),5,7,9,20(24),21-hexaene-2,2,4-trione]",< 1000,+ (+ is <30%),"ring closure, isolated yield ([1]; from 2-chloro-N-[[6-[5-(5,5-dimethylpyrrolidin-3-yl)pentyl]-3-pyridyl]sulfonyl]-6-[3-[2-[1-(trifluoromethyl)cyclopropyl]ethoxy]pyrazol-1-yl]pyridine-3-carboxamide (dihydrochloride salt), 17-membered ring, K2CO3/CsF, DMSO, 63.0 mM, 165.0 °C): 36%"
"CC1(C)CC2CCCCCc3ccc(nc3)S(=O)(=O)NC(=O)c3ccc(-n4ccc(OCCC5(C(F)(F)F)CC5)n4)nc3N1C2 (stereo not drawn) [Compound 143, 12,12-dimethyl-8-(3-{2-[1-(trifluoromethyl)cyclopropyl]ethoxy}-1H-pyrazol-1-yl)-2λ^6-thia-3,9,11,22-tetraazatetracyclo[18.2.2.111,14.05,10]pentacosa-1(23),5,7,9,20(24),21-hexaene-2,2,4-trione]",1000 to 3000,+ (+ is <30%),"ring closure, isolated yield ([1]; from CC1(C)CC(CCCCCc2ccc(S(=O)(=O)NC(=O)c3ccc(-n4ccc(OCCC5(C(F)(F)F)CC5)n4)nc3Cl)nc2)CN1, 17-membered ring, K2CO3/CsF, DMSO, 45.1 mM, 165.0 °C, 17.0 h): 11%"
"Cc1cc2nn1CCCC1CN(c3nc(-n4ccc(OCCC5(C(F)(F)F)CC5)n4)ccc3C(=O)NS2(=O)=O)C(C)(C)C1 (stereo not drawn) [Compound 144, 13,20,20-Trimethyl-4-(3-{2-[1-(trifluoromethyl)cyclopropyl]ethoxy}-1H-pyrazol-1-yl)-10λ^6-thia-1,3,9,14,22-pentaazatetracyclo[16.2.1.111,14.02,7]docosa-2,4,6,11(22),12-pentaene-8,10,10-trione]",< 1000,++ (++ is 30-60%),"ring closure, isolated yield ([1]; from Cc1cc(S(=O)(=O)NC(=O)c2ccc(-n3ccc(OCCC4(C(F)(F)F)CC4)n3)nc2Cl)nn1CCCC1CN(C(=O)OC(C)(C)C)C(C)(C)C1, 14-membered ring, K2CO3/CsF/3A MS, DMSO, 44.1 mM, 155.0 °C, 2 steps): 38%"
"CC1(C)C[C@@H]2CCCNc3cccc(n3)S(=O)(=O)NC(=O)c3ccc(-n4ccc(OCCCC5(C(F)(F)F)CC5)n4)nc3N1C2 [Compound 161, (14S)-12,12-dimethyl-8-(3-{3-[1-(trifluoromethyl)cyclopropyl]propoxy}-1H-pyrazol-1-yl)-2λ^6-thia-3,9,11,18,23-pentaazatetracyclo[17.3.1.111,14.05,10]tetracosa-1(22),5,7,9,19(23),20-hexaene-2,2,4-trione]",< 1000,+++ (+++ is >60%),"ring closure, isolated yield ([1]; from 2-chloro-N-[[6-[3-[(3S)-5,5-dimethylpyrrolidin-3-yl]propylamino]-2-pyridyl]sulfonyl]-6-[3-[3-[1-(trifluoromethyl)cyclopropyl]propoxy]pyrazol-1-yl]pyridine-3-carboxamide (dihydrochloride salt), 15-membered ring, K2CO3/CsF, NMP, 83.9 mM, 150.0 °C): 55%"
"CC1(C)CC2CCCn3ccc(n3)S(=O)(=O)NC(=O)c3ccc(-n4ccc(OCCC5C6(CC6)C56CC6)n4)nc3N1C2 (stereo not drawn) [Compound 176, 4-[3-(2-{dispiro[2.0.2.1]heptan-7-yl}ethoxy)-1H-pyrazol-1-yl]-20,20-dimethyl-10λ^6-thia-1,3,9,14,22-pentaazatetracyclo[16.2.1.111,14.02,7]docosa-2,4,6,11(22),12-pentaene-8,10,10-trione]",< 1000,+++ (+++ is >60%),"ring closure, isolated yield ([1]; from CC1(C)CC(CCCn2ccc(S(=O)(=O)NC(=O)c3ccc(-n4ccc(OCCC5C6(CC6)C56CC6)n4)nc3Cl)n2)CN1, 14-membered ring, K2CO3/CsF/3A MS, DMSO, 53.1 mM, 155.0 °C): 40%"
"CC1(C)C[C@@H]2CCCNc3cccc(n3)S(=O)(=O)NC(=O)c3ccc(-n4ccc(OCCC5C(C)(C)C5(C)C)n4)nc3N1C2 [Compound 185, (14S)-12,12-Dimethyl-8-{3-[2-(2,2,3,3-tetramethylcyclopropyl)ethoxy]-1H-pyrazol-1-yl}-2λ^6-thia-3,9,11,18,23-pentaazatetracyclo[17.3.1.111,14.05,10]tetracosa-1(23),5(10),6,8,19,21-hexaene-2,2,4-trione]",< 1000,+++ (+++ is >60%),"ring closure, isolated yield ([1]; from CC(C)(C)OC(=O)N1C[C@@H](CCCNc2cccc(S(=O)(=O)NC(=O)c3ccc(-n4ccc(OCCC5C(C)(C)C5(C)C)n4)nc3Cl)n2)CC1(C)C, 15-membered ring, K2CO3/3A MS, DMSO, 37.9 mM, 160.0 °C, 2 steps): 19%"
"CC1(C)C[C@@H]2CCCn3ccc(n3)S(=O)(=O)NC(=O)c3ccc(-n4ccc(OCCC5C6(CC6)C56CC6)n4)nc3N1C2 [Compound 187, (18S)-4-[3-(2-{Dispiro[2.0.2.1]heptan-7-yl}ethoxy)-1H-pyrazol-1-yl]-20,20-dimethyl-10λ^6-thia-1,3,9,14,22-pentaazatetracyclo[16.2.1.111,14.02,7]docosa-2,4,6,11(22),12-pentaene-8,10,10-trione]",< 1000,+++ (+++ is >60%),"ring closure, isolated yield ([1]; from CC1(C)C[C@H](CCCn2ccc(S(=O)(=O)NC(=O)c3ccc(-n4ccc(OCCC5C6(CC6)C56CC6)n4)nc3Cl)n2)CN1, 14-membered ring, K2CO3/CsF/3A MS, DMSO, 26.2 mM, 155.0 °C, 18.0 h): 72%"
"CC1(C)C[C@H]2CCCNc3cccc(n3)S(=O)(=O)NC(=O)c3ccc(-n4ccc(OCCC5C6(CC6)C56CC6)n4)nc3N1C2 [Compound 194, (14R)-8-[3-(2-{Dispiro[2.0.2.1]heptan-7-yl}ethoxy)-1H-pyrazol-1-yl]-12,12-dimethyl-2λ^6-thia-3,9,11,18,23-pentaazatetracyclo[17.3.1.111,14.05,10]tetracosa-1(22),5,7,9,19(23),20-hexaene-2,2,4-trione]",< 1000,++ (++ is 30-60%),"ring closure, isolated yield ([1]; from CC1(C)C[C@@H](CCCNc2cccc(S(=O)(=O)NC(=O)c3ccc(-n4ccc(OCCC5C6(CC6)C56CC6)n4)nc3Cl)n2)CN1, 15-membered ring, K2CO3, NMP, 72.4 mM, 135.0 °C, 22.0 h): 57%"
"CC1(C)C[C@@H]2CCCNc3cccc(n3)S(=O)(=O)NC(=O)c3ccc(-n4ccc(OCCC5C6(CC6)C56CC6)n4)nc3N1C2 [Compound 195, (14S)-8-[3-(2-{Dispiro[2.0.2.1]heptan-7-yl}ethoxy)-1H-pyrazol-1-yl]-12,12-dimethyl-2λ^6-thia-3,9,11,18,23-pentaazatetracyclo[17.3.1.111,14.05,10]tetracosa-1(22),5,7,9,19(23),20-hexaene-2,2,4-trione]",< 1000,+++ (+++ is >60%),"ring closure, isolated yield ([1]; from CC1(C)C[C@H](CCCNc2cccc(S(=O)(=O)NC(=O)c3ccc(-n4ccc(OCCC5C6(CC6)C56CC6)n4)nc3Cl)n2)CN1, 15-membered ring, K2CO3, NMP, 55.8 mM, 150.0 °C, 22.0 h): 68%"

# Reference: US11866450B2, “Modulators of Cystic Fibrosis Transmembrane Conductance regulator, pharmaceutical compositions, methods of treatment, and process for making the modulators” (priority 2018, dated 2024)
